Measurements published in patent US8945361B2, “Electrophoresis standards, methods and kits” (ProteinSimple, priority 2005, dated 2015).
Where a SMILES comes first, the peptide text is derived from it. The star is where a group is joined. 5TAMRA = CN(C)c1ccc2c(c1)Oc1cc(N(C)C)ccc1C21OC(=O)c2cc(C(=O)*)ccc21; X1 = [N-]=[N+]=Nc1c(F)c(F)c(C(=O)*)c(F)c1F

What was measured:
[1] = pI mobility standard
Description: The pI of standards can be determined directly in IEF PAGE gels using a pH meter with a microprobe.

[2] = expected pKa's, net charge and pI of the Example 5 peptide; type: physicochemical
Description: The blocks of lysine (K) and glutamic acid (E) residues contain basic and acidic ionizable groups at a variety of pKa values in keeping with the proximity effects described above. […] The approximate expected net charge on the peptide at various pH values is then as follows: pH 11, −3; pH 10, −2.5; pH 9, −1.7; pH 8, −0.8; pH 7, +0.3; pH 6, +1.2; pH 5, +2.3; pH 4, +3.2; pH 3, +4, pH 2, +4.5; pH 1, +5. […] The peptide is therefore expected to be a useful pI standard that forms a tight band under electrophoretic conditions in a pH gradient. Additional standards of desired pIs can be generated by systematically varying the number of sequential K and E residues in a set of peptides based on the above sequence.

Row | Molecule | pI [1] | approximate expected net charge ([2]; pH 1) | approximate expected net charge ([2]; pH 2) | approximate expected net charge ([2]; pH 3) | approximate expected net charge ([2]; pH 4) | approximate expected net charge ([2]; pH 5) | approximate expected net charge ([2]; pH 6) | approximate expected net charge ([2]; pH 7) | approximate expected net charge ([2]; pH 8) | approximate expected net charge ([2]; pH 9) | approximate expected net charge ([2]; pH 10) | approximate expected net charge ([2]; pH 11)
1 | C[C@H](NC(=O)CNC(=O)[C@@H](N)CCCCNC(=O)c1c(F)c(F)c(N=[N+]=[N-])c(F)c1F)C(=O)N[C@@H](CCC(=O)O)C(=O)N[C@@H](Cc1c[nH]cn1)C(=O)N[C@@H](Cc1c[nH]cn1)C(=O)N[C@@H](CCCCNC(=O)c1ccc2c(c1)C(=O)OC21c2ccc(N(C)C)cc2Oc2cc(N(C)C)ccc21)C(=O)NCC(=O)O [H2N—K(ATFB)GAEHHK(5-TAMRA)G-OH] (H-K(X1)GAEHHK(5TAMRA)G-OH) | approximately 5.45 |  |  |  |  |  |  |  |  |  |  | 
2 | Ac—K(ATFB) KKKKKAibAibEEEGG K(5-TAMRA)G-NH2 |  | ~+5 | ~+4.5 | ~+4 | ~+3.2 | ~+2.3 | ~+1.2 | ~+0.3 | ~−0.8 | ~−1.7 | ~−2.5 | ~−3
